PMC11259170, “Small-molecule probe for IBD risk variant GPR65 I231L alters cytokine signaling networks through positive allosteric modulation” (Science Advances, 2024)
pEC50: −log10 of the molar value. Like-named read-outs stand apart in the source and are kept apart here.

Tests used:
[1] = target: T1, hGPR65 (Homo sapiens, UniProt Q8IYL9); test: cAMP detection in HeLa expression cell line, hGPR65; assay type: cell-based; details: for Emax: HeLa, read-out: hGPR Max Activity %; for EC50: hGPR EC50 (uM); for cAMP production relative to BRD2813, hGPR65: pH 7.2
T1 construct: expressed in transfected cells; host or cells: HeLa (ATCC CCL-2), lentiviral transduction, pLX317
Description: (§1) HeLa stable expression cell lines were produced by lentiviral transduction. Briefly, lentiviral plasmids for each GPCR with a C-terminal V5 Tag ([…]) were made in a pLX317 backbone using competent Escherichia coli (New England Biolabs, C3050H). Lenti-X 293 T (Takara, 632810) cells were transfected with the lentiviral plasmids to produce virus. Low-passage HeLa cells (American Type Culture Collection, CCL-2) were then transduced with lentivirus. After 48 hours, HeLa cells were cultured under selection with puromycin (3 μg/ml) and allowed to recover and expand before storing stocks in liquid nitrogen.
(§2) cAMP was measured in cells using the Lance Ultra cAMP Kit. HeLa cells were cultured under puromycin (3 μg/ml) selection. One day before the experiment, cells were seeded in T75 flasks and allowed to adhere overnight. On the day of the experiment, cells were washed twice with Dulbecco’s PBS and lifted using prewarmed 1× versene solution (Gibco, 15040066). Cells were counted in HBSS (Gibco, 14025092) and then resuspended in stimulation buffer prepared according to the manufacturer’s instructions and adjusted to pH 7.2 using 1 M sodium hydroxide. Cells were added to the plate at a density of 1500 cells per well in white opaque 384-well assay ready microplates containing 100 nl of 10 mM compound in DMSO. Cells were stimulated for 30 min at RT, then lysed and incubated with detection reagents for 1 hour in the dark at RT. Plates were read on BMG Labtech PHERAstar FSX (excitation, 337 nm; emission, 620 and 665 nm). Data analysis was performed using GraphPad Prism.

[2] = test system: GFP-expressing HeLa cells; test: cAMP detection in HeLa expression cell line, GFP control; assay type: cell-based, human; details: Homo sapiens, HeLa; for Emax: relative to 100uM forskolin (100%) and DMSO (0%), read-out: GFP Max Activity %
Description: as §1, §2

[3] = target: T2, mGPR65 (Mus musculus, UniProt Q61038); test: cAMP detection in HeLa expression cell line, mGPR65; assay type: cell-based; details: for pEC50: read-out: mGPR EC50; for Emax: HeLa, read-out: mGPR Max Activity %; for EC50: mGPR EC50 (uM); for cAMP production relative to BRD2813, mGPR65: pH 7.2
T2 construct: expressed in transfected cells; host or cells: HeLa (ATCC CCL-2), lentiviral transduction, pLX317
Description: as §1, §2

[4] = 1st hGPR column pair, NA = no activity, read-out: hGPR EC50
[5] = 1st hGPR column pair, relative to 100uM forskolin (100%) and DMSO (0%), NA = no activity
[6] = 1st GFP column pair, NA = no activity
[7] = 1st mGPR column pair, NA = no activity
[8] = relative to 100uM forskolin (100%) and DMSO (0%), NA = no activity
[9] = 2nd hGPR column pair, NA = no activity, read-out: hGPR EC50
[10] = 2nd hGPR column pair, relative to 100uM forskolin (100%) and DMSO (0%), NA = no activity
[11] = 2nd mGPR column pair, NA = no activity
[12] = 2nd mGPR column pair, relative to 100uM forskolin (100%) and DMSO (0%), NA = no activity
[13] = first pair, relative to 100uM forskolin (100%) and DMSO (0%)
[14] = SAR cAMP assay, first EC50/Max pair

T2 sequence (Q61038 whole entry): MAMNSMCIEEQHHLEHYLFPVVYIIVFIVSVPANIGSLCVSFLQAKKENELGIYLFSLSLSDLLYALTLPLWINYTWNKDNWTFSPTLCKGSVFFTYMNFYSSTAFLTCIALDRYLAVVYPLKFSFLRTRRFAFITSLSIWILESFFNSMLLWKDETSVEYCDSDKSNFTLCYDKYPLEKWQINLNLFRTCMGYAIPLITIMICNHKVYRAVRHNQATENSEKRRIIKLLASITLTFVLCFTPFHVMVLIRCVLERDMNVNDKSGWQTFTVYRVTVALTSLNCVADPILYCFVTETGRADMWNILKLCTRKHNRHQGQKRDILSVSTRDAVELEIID
T1 sequence (Q8IYL9 whole entry): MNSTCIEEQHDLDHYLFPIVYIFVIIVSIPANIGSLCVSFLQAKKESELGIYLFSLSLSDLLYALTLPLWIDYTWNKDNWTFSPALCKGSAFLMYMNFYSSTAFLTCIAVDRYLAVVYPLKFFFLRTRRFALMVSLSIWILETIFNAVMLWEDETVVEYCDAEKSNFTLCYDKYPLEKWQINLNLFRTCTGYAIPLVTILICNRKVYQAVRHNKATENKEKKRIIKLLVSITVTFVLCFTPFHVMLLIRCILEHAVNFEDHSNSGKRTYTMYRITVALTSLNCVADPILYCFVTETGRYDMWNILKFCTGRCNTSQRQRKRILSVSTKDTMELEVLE

Compound	pEC50 [1, 4]	Emax [1, 5] [%]	pEC50 [2, 6]	Emax [2, 6] [%]	pEC50 [3, 7]	Emax [3, 8] [%]	pEC50 [1, 9]	Emax [1, 10] [%]	pEC50 [3, 11]	Emax [3, 12] [%]	other results
CCN(CC)C(=O)c1cnn2c(O)cc(-c3ccc(COC)cc3)nc12 [BRD7582]	5.58	4.89	5.20	10.8	–	–	–	–	–	–	–
CCn1cc(Cl)c(-c2cc(O)n3ncc(C(N)=O)c3n2)n1 [BRD8068]	–	–	4.28	40.7	4.79	13.4	–	–	–	–	–
COc1ncccc1-c1cc(O)n2ncc(C(=O)Nc3ccc(Cl)cc3)c2n1 [BRD8007]	–	–	5.21	6.72	5.66	20	–	–	–	–	–
COCc1ccc(-c2cc(O)n3ncc(C(=O)Nc4ccc(C(=O)OC)cc4)c3n2)cc1 [BRD0592]	5.89	68.9	–	–	6.09	64.1	5.90	68.2	6.25	57	–
COCc1ccc(-c2cc(O)n3ncc(C(=O)Nc4ccc(NC(C)=O)cc4)c3n2)cc1 [BRD9998]	4.75	1.34	4.04	3.25	–	–	–	–	–	–	–
Cc1ccc(NC(=O)c2cnn3c(O)cc(Cc4ccc5ccccc5c4)nc23)cc1 [BRD7330]	–	–	–	–	–	–	–	–	–	–	Emax [3, 13]: 11.6%; pEC50 [3, 14]: 6.42; pEC50 ([2]; SAR cAMP assay, first EC50/Max pair of GFP control columns): 5.63; Emax ([2]; first pair): 1.96%
Cc1cnc(NC(=O)c2cnn3c(O)cc(-c4ccc(COC(C)C)cc4)nc23)nc1 [BRD5076]	5.70	72.4	–	–	5.94	59.9	5.78	69.9	5.74	56.3	–
CCOCc1ccc(-c2cc(O)n3ncc(C(=O)Nc4ccc(C)cc4)c3n2)cc1 [BRD6745]	6.18	83.5	–	–	6.26	52.9	6.38	81.6	6.29	48.9	–
Cc1ccc(NC(=O)c2cnn3c(O)cc(-c4ccc(Cl)cc4)nc23)cc1 [BRD2007]	6.39	79.1	–	–	6.19	24.9	6.61	81.4	6.19	22.7	–
O=C(O)c1cnn2c(O)cc(-c3ccccc3)nc12 [BRD3374]	–	–	5.42	4.66	–	–	–	–	–	–	–
Cc1ccc(NC(=O)c2cnn3c(O)cc(-c4ccc(COC(C)C)cc4)nc23)cc1 [BRD5928]	–	82.5	–	–	–	61.1	–	80	–	54.1	EC50 ([1]; NA = no activity): 0.271 µM; pEC50 ([1]; hGPR EC50, NA = no activity): 6.20; cAMP production relative to BRD2813, hGPR65 [1]: induced high hGPR65 activity; EC50 [3, 11]: 0.494 µM; EC50 ([3]; NA = no activity): 0.635 µM; cAMP production relative to BRD2813, mGPR65 [3]: substantially increasing cAMP production
Cc1ccc(NC(=O)c2cnn3c(O)cc(-c4ccc(-c5ccc(O)cc5)cc4)nc23)cc1 [BRD4475]	–	–	–	–	–	–	–	–	–	–	Emax [1, 13]: 22.6%; pEC50 ([1]; SAR cAMP assay, first EC50/Max pair of hGPR columns, read-out: hGPR EC50): 4.98; Emax [3, 13]: 30.5%; pEC50 [3, 14]: 5.78
Cc1ccc(NC(=O)c2cnn3c(O)cc(COc4ccccc4)nc23)cc1 [BRD6694]	5.10	20.7	–	–	–	–	5.33	22.4	4.71	5.79	–
Cc1ccc(NC(=O)c2cnn3c(O)cc(-c4ccc(N5CCOCC5)nc4)nc23)cc1 [BRD5064]	5.30	56.7	–	–	5.47	37.4	4.55	100	5.37	33.9	–
O=C(Nc1ccccc1)c1cnn2c(O)cc(COc3ccccc3)nc12 [BRD5802]	4.05	55.7	4.38	5.04	–	–	–	–	–	–	–
COc1cc(-c2cc(O)n3ncc(C(=O)Nc4ccc(C)cc4)c3n2)ccc1Cl [BRD5061]	6.03	72.2	–	–	6.10	23.4	5.81	60.5	–	20.1	–
Cc1n[nH]c(C)c1CCc1cc(O)n2ncc(C(=O)Nc3ccc(Cl)cc3)c2n1 [BRD1303]	–	–	4.41	5.8	4.80	10.7	–	–	–	–	–
CC(C)OCc1ccc(-c2cc(O)n3ncc(C(=O)Nc4ccccn4)c3n2)cc1 [BRD5074]	5.15	84.1	–	–	5.03	78	5.05	75.9	–	–	–
O=C(O)c1cnn2c(O)cc(-c3ccc(F)cc3)nc12 [BRD7884]	–	–	5.04	3.25	–	–	–	–	–	–	–
COCc1ccc(-c2cc(O)n3ncc(C(=O)Nc4ccc(C(=O)N(C)C)cc4)c3n2)cc1 [BRD1926]	4.47	11	–	–	4.67	28.4	–	–	–	–	–
COCc1ccc(-c2cc(O)n3ncc(C(=O)NC4CCOCC4)c3n2)cc1 [BRD0202]	–	–	4.81	6.11	–	–	–	–	–	–	–
COCc1ccc(-c2cc(O)n3ncc(C(=O)Nc4ccccc4C)c3n2)cc1 [BRD2974]	–	–	5.44	19.4	4.58	8.27	–	–	–	–	–
Cc1ccc(NC(=O)c2cnn3c(O)cc(-c4ccc(-c5ccccc5O)cc4)nc23)cc1 [BRD1689]	5.45	79	–	–	5.80	54	5.25	74.3	5.69	45.5	–
COc1cccc(Cc2cc(O)n3ncc(C(=O)Nc4ccc(C)cc4)c3n2)c1 [BRD5386]	–	–	–	–	5.70	39.5	–	–	5.66	16.4	pEC50 ([1]; NA = no activity, read-out: hGPR EC50): 5.71; hGPR Max Activity [1, 8]: 4.575%; pEC50 ([3]; 3rd mGPR column pair, NA = no activity): 6.37; mGPR Max Activity [3, 8]: 21.71%
COCc1ccc(-c2cc(O)n3ncc(C(=O)Nc4ccc(OC)cc4)c3n2)cc1 [BRD5326]	–	83	–	–	–	56.3	–	82.7	–	55.6	EC50 ([1]; NA = no activity): 1.26 µM; pEC50 ([1]; hGPR EC50, NA = no activity): 6.04; cAMP production relative to BRD2813, hGPR65 [1]: little effect on cAMP production; EC50 [3, 11]: 1.26 µM; EC50 ([3]; NA = no activity): 1.27 µM; cAMP production relative to BRD2813, mGPR65 [3]: slight improvement in mGPR65 activity
COc1ccc(-c2cc(O)n3ncc(C(=O)Nc4ccc(C)cc4)c3n2)cc1 [BRD9965]	6.13	73.8	–	–	4.62	-56.6	6.03	66	4.49	-39	–
Cc1ccc(NC(=O)c2cnn3c(O)cc(-c4ccc(F)cc4)nc23)cc1 [BRD1827]	6.20	78	–	–	5.86	43.6	6.02	77.5	5.89	43.8	–
Cc1ccc(NC(=O)c2cnn3c(O)cc(-c4ccc(N5CCCC5)cc4)nc23)cc1 [BRD4336]	5.05	14.5	4.86	9.65	–	–	–	–	–	–	–
COCc1ccc(-c2cc(O)n3ncc(C(=O)Nc4cccc(C)c4)c3n2)cc1 [BRD1946]	5.31	80.4	–	–	6.30	63.6	5.30	76.2	5.82	57.2	–
